# Source: ChEMBL document CHEMBL1146990, “Antibacterial activity of (-)-deoxypseudophrynaminol versus its racemate and derivatives” (2006)
# Active and inactive are the calls of the source. The rule behind the calls is not given here.
# Columns and labels:
# Staphylococcus aureus [1] = assay: Antibacterial activity against Staphylococcus aureus at 40 ug/ml relative to control; format: functional
# Staphylococcus aureus [2] = assay: Antibacterial activity against Staphylococcus aureus at 10 ug/ml relative to control; format: functional
structure (smiles),measurement,setting,value
CC(C)=CC[C@@]12CCN(C)[C@@H]1Nc1ccccc12,Activity,Staphylococcus aureus [1],99%
same,Activity,Staphylococcus aureus [2],50%
CC(C)=CCN1c2ccccc2[C@]2(CC=C(C)C)CCN(C)[C@H]12 (racemic) [(-)-DEBROMOFLUSTRAMINE B],Activity,Staphylococcus aureus [1],30%
COC(=O)N1CC[C@@]2(CC=C(C)C)c3ccccc3N(CC=C(C)C)[C@@H]12 (racemic),Activity,Staphylococcus aureus [1],inactive
same,Activity,Staphylococcus aureus [2],inactive
CC(C)=CC[C@@]12CCN(C)[C@@H]1Nc1ccccc12 (racemic) [listing 1 of 2 here],Activity,Staphylococcus aureus [2],inactive
CC(C)=CC[C@@]12CCN(C)[C@@H]1Nc1ccccc12 (racemic) [listing 2 of 2 here],Activity,Staphylococcus aureus [1],85%
